# Reference: patent publication US11697646B2, “Triazole N-linked carbamoyl cyclohexyl acids as LPA antagonists” (BRISTOL-MYERS SQUIBB COMPANY, priority 2017, dated 2023)
# Like-named read-outs stand apart in the source and are kept apart here.
# Biological target: T1, human LPA1 (Homo sapiens, UniProt Q92633)
# T1 construct: expressed in transfected cells; host or cells: Chinese hamster ovary (CHO) cells
# Assay: LPA1 functional antagonist assay (calcium flux)
# Assay type: cell-based
# Settings: read-out: hLPA1 IC50
# Description: The effectiveness of compounds of the present invention as LPA1 inhibitors can be determined in an LPA1 functional antagonist assay as follows:
# The cells were then equilibrated to room temperature for 30 minutes before the assay. […] IC50 values were determined by fitting data to a 4-parameter logistic equation (GraphPad Prism, San Diego Calif.).
# [1] = CHO cells overexpressing human LPA1, calcium flux induced by 10 nM LPA
# [2] = human LPA1 functional antagonist assay
# T1 sequence (Q92633 whole entry): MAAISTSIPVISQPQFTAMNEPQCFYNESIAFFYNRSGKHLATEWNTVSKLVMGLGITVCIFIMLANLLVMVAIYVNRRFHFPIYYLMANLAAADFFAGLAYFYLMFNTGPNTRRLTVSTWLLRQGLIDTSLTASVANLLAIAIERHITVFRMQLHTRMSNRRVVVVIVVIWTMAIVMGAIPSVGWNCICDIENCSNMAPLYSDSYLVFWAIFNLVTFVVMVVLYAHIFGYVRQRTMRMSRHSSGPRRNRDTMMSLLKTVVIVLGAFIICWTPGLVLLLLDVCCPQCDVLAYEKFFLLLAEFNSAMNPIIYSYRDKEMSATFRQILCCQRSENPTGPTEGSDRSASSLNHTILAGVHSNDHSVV
SMILES,IC50 [1] [nM],IC50 [2] [nM]
"Cc1nc(-c2nnn(C)c2NC(=O)N[C@H](C)C2CC2)ccc1O[C@H]1CCC[C@H](C(=O)O)C1 [Example 146, (1S,3S)-3-((6-(5-(3-((R)-1-cyclopropylethyl)ureido)-1-methyl-1H-1,2,3-triazol-4-yl)-2-methylpyridin-3-yl)oxy)cyclohexane-1-carboxylic acid]",306,
"CCc1nc(-c2nnn(C)c2CNC(=O)N(C)CC2CCC2)ccc1O[C@H]1CCC[C@H](C(=O)O)C1 [Example 148, (1S,3S)-3-((6-(5-((3-(cyclobutyl-methyl)-3-methylureido)methyl)-1-methyl-1H-1,2,3-triazol-4-yl)-2-ethylpyridin-3-yl)oxy)cyclohexane-1-carboxylic acid]",62,
"CCc1nc(-c2nnn(C)c2CNC(=O)N(C)Cc2ccccc2)ccc1O[C@H]1CCC[C@H](C(=O)O)C1 [Example 149, (1S,3S)-3-((6-(5-((3-benzyl-3-methylureido)methyl)-1-methyl-1H-1,2,3-triazol-4-yl)-2-ethyl-pyridin-3-yl)oxy)cyclohexane-1-carboxylic acid]",143,
"CCCCN(C)C(=O)NCc1c(-c2ccc(O[C@H]3CCC[C@H](C(=O)O)C3)c(CC)n2)nnn1C [Example 150, (1S,3S)-3-((6-(5-((3-butyl-3-methylureido)methyl)-1-methyl-1H-1,2,3-triazol-4-yl)-2-ethyl-pyridin-3-yl)oxy)cyclohexane-1-carboxylic acid]",44,
"CCCCNC(=O)NCc1c(-c2ccc(O[C@H]3CCC[C@H](C(=O)O)C3)c(CC)n2)nnn1C [Example 151, (1S,3S)-3-((6-(5-((3-butyl-ureido)methyl)-1-methyl-1H-1,2,3-triazol-4-yl)-2-ethylpyridin-3-yl)oxy)cyclohexane-1-carboxylic acid]",647,
"CCc1nc(-c2nnn(C)c2CNC(=O)NCC2CC2)ccc1O[C@H]1CCC[C@H](C(=O)O)C1 [Example 152, (1S,3S)-3-((6-(5-((3-(cyclopropyl-methyl)ureido)methyl)-1-methyl-1H-1,2,3-triazol-4-yl)-2-ethyl-pyridin-3-yl)oxy)cyclohexane-1-carboxylic acid]",270,
"CCc1nc(-c2nnn(C)c2CNC(=O)NCc2ccccc2)ccc1O[C@H]1CCC[C@H](C(=O)O)C1 [Example 153, (1S,3S)-3-((6-(5-((3-benzyl-ureido)methyl)-1-methyl-1H-1,2,3-triazol-4-yl)-2-ethylpyridin-3-yl)oxy)cyclohexane-1-carboxylic acid]",107,
"CC(COC(=O)NCc1c(-c2ncc(O[C@H]3CCC[C@H](C(=O)O)C3)cn2)nnn1C)CC(F)(F)F (stereo partly drawn) [Example 154, (1S,3S)-3-((2-(1-methyl-5-((((4,4,4-trifluoro-2-methylbutoxy)carbonyl)amino)methyl)-1H-1,2,3-triazol-4-yl)pyrimidin-5-yl)oxy)cyclohexane-1-carboxylic acid]",,2900
"Cc1nc(-c2nnn(C)c2CNC(=O)OCC(C)CC(F)(F)F)cnc1O[C@H]1CCC[C@H](C(=O)O)C1 (stereo partly drawn) [Example 155, (1S,3S)-3-((3-methyl-5-(1-methyl-5-((((4,4,4-trifluoro-2-methylbutoxy)carbonyl)amino)methyl)-1H-1,2,3-triazol-4-yl)pyrazin-2-yl)oxy)cyclohexane-1-carboxylic acid]",,85
"Cc1nc(-c2nnn(C)c2CNC(=O)OCC2CCC2)cnc1O[C@H]1CCC[C@H](C(=O)O)C1 [Example 156, (1S,3S)-3-((5-(5-((((cyclobutyl-methoxy)carbonyl)amino)methyl)-1-methyl-1H-1,2,3-triazol-4-yl)-3-methylpyrazin-2-yl)oxy)cyclohexane-1-carboxylic acid]",,213
"Cc1nc(-c2nnn(C)c2CNC(=O)OCCC2CC2)ccc1O[C@H]1CCC[C@H](C(=O)O)C1 [Example 157, (1S,3S)-3-((6-(5-((((2-cyclopropyl-ethoxy)carbonyl)amino)methyl)-1-methyl-1H-1,2,3-triazol-4-yl)-2-methylpyridin-3-yl)oxy)cyclo-hexane-1-carboxylic acid]",,19
"Cc1nc(-c2nnn(C)c2CNC(=O)OCCC(C)(C)C)cnc1O[C@H]1CCC[C@H](C(=O)O)C1 [Example 158, (1S,3S)-3-((5-(5-((((3,3-dimethyl-butoxy)carbonyl)amino)methyl)-1-methyl-1H-1,2,3-triazol-4-yl)-3-methylpyrazin-2-yl)oxy)cyclo-hexane-1-carboxylic acid]",,76
"Cc1nc(-c2nnn(C)c2CNC(=O)OCc2cccc(F)c2)cnc1O[C@H]1CCC[C@H](C(=O)O)C1 [Example 159, (1S,3S)-3-((5-(5-(((((3-fluorobenzyl)oxy)carbonyl)amino)methyl)-1-methyl-1H-1,2,3-triazol-4-yl)-3-methylpyrazin-2-yl)oxy)cyclo-hexane-1-carboxylic acid]",,122
"Cc1nc(-c2nnn(C)c2CNC(=O)OCCC2CC2)cnc1O[C@H]1CCC[C@H](C(=O)O)C1 [Example 160, (1S,3S)-3-((5-(5-((((2-cyclopropylethoxy)carbonyl)amino)methyl)-1-methyl-1H-1,2,3-triazol-4-yl)-3-methylpyrazin-2-yl)oxy)cyclo-hexane-1-carboxylic acid]",,66
"CC[C@H](C)COC(=O)NCc1c(-c2cnc(O[C@H]3CCC[C@H](C(=O)O)C3)c(C)n2)nnn1C [Example 161, (1S,3S)-3-((3-methyl-5-(1-methyl-5-(((((S)-2-methylbutoxy)carbonyl)amino)methyl)-1H-1,2,3-triazol-4-yl)pyrazin-2-yl)oxy)cyclohexane-1-carboxylic acid]",,109
"Cc1nc(-c2nnn(C)c2CNC(=O)OCCCCF)ccc1O[C@H]1CCC[C@H](C(=O)O)C1 [Example 162, (1S,3S)-3-((6-(5-((((4-fluorobutoxy)carbonyl)amino)methyl)-1-methyl-1H-1,2,3-triazol-4-yl)-2-methyl-pyridin-3-yl)oxy)cyclohexane-1-carboxylic acid]",,60
"Cc1nc(-c2nnn(C)c2CNC(=O)OCC2(CCF)CC2)ccc1O[C@H]1CCC[C@H](C(=O)O)C1 [Example 163, (1S,3S)-3-((6-(5-(((((1-(2-fluoro-ethyl)cyclopropyl)methoxy)carbonyl)amino)methyl)-1-methyl-1H-1,2,3-triazol-4-yl)-2-methylpyridin-3-yl)oxy)cyclohexane-1-carboxylic acid]",,88
"Cc1nc(-c2nnn(C)c2CNC(=O)OCC2CC2(C)C)ccc1O[C@H]1CCC[C@H](C(=O)O)C1 (stereo partly drawn) [Example 164, (1S,3S)-3-((6-(5-(((((2,2-dimethyl-cyclopropyl)methoxy)carbonyl)amino)methyl)-1-methyl-1H-1,2,3-triazol-4-yl)-2-methylpyridin-3-yl)oxy)cyclohexane-1-carboxylic acid]",,65
"CCC[C@H](C)OC(=O)NCc1c(-c2ccc(O[C@H]3CCC[C@H](C(=O)O)C3)c(C)n2)nnn1C [Example 165, (1S,3S)-3((2-methyl-6-(1-methyl-5-((((((S)-pentan-2-yl)oxy)carbonyl)amino)methyl)-1H-1,2,3-triazol-4-yl)pyridin-3-yl)oxy)cyclohexane-1-carboxylic acid]",,34
"Cc1nc(-c2nnn(C)c2CNC(=O)OCCCCC(F)(F)F)ccc1O[C@H]1CCC[C@H](C(=O)O)C1 [Example 166, (1S,3S)-3-((2-methyl-6-(1-methyl-5-(((((5,5,5-trifluoropentyl)oxy)carbonyl)amino)methyl)-1H-1,2,3-triazol-4-yl)pyridin-3-yl)oxy)cyclohexane-1-carboxylic acid]",,121
"Cc1nc(-c2nnn(C)c2CNC(=O)O[C@H](C)C2CC2)ccc1O[C@H]1CCC[C@H](C(=O)O)C1 [Example 167, (1S,3S)-3-((6-(5-(((((R)-1-cyclo-propylethoxy)carbonyl)amino)methyl)-1-methyl-1H-1,2,3-triazol-4-yl)-2-methylpyridin-3-yl)oxy)cyclohexane-1-carboxylic acid]",,427
"Cc1nc(-c2nnn(C)c2CNC(=O)OC2CC(C)(C)C2)ccc1O[C@H]1CCC[C@H](C(=O)O)C1 [Example 168, (1S,3S)-3-((6-(5-((((3,3-dimethyl-cyclobutoxy)carbonyl)amino)methyl)-1-methyl-1H-1,2,3-triazol-4-yl)-2-methylpyridin-3-yl)oxy)cyclo-hexane-1-carboxylic acid]",,90
"Cc1nc(-c2nnn(C)c2CNC(=O)OCCCC(F)(F)F)ccc1O[C@H]1CCC[C@H](C(=O)O)C1 [Example 169, (1S,3S)-3-((2-methyl-6-(1-methyl-5-((((4,4,4-trifluorobutoxy)carbonyl)amino)methyl)-1H-1,2,3-triazol-4-yl)pyridin-3-yl)oxy)cyclohexane-1-carboxylic acid]",,55
"Cc1nc(-c2nnn(C)c2CNC(=O)O[C@H](C)C(C)C)ccc1O[C@H]1CCC[C@H](C(=O)O)C1 [Example 170, (1S,3S)-3-((2-methyl-6-(1-methyl-5-((((((R)-3-methylbutan-2-yl)oxy)carbonyl)amino)methyl)-1H-1,2,3-triazol-4-yl)pyridin-3-yl)oxy)cyclohexane-1-carboxylic acid]",,92
"CCC[C@@H](C)OC(=O)NCc1c(-c2ccc(O[C@H]3CCC[C@H](C(=O)O)C3)c(C)n2)nnn1C [Example 171, (1S,3S)-3-((2-methyl-6-(1-methyl-5-((((((R)-pentan-2-yl)oxy)carbonyl)amino)methyl)-1H-1,2,3-triazol-4-yl)pyridin-3-yl)oxy)cyclohexane-1-carboxylic acid]",,76
"CC[C@@H](C)OC(=O)NCc1c(-c2ccc(O[C@H]3CCC[C@H](C(=O)O)C3)c(C)n2)nnn1C [Example 172, (1S,3S)-3-((6-(5-((((R)-sec-butoxycarbonyl)amino)methyl)-1-methyl-1H-1,2,3-triazol-4-yl)-2-methyl-pyridin-3-yl)oxy)cyclohexane-1-carboxylic acid]",,152
